Experimental data: the supplement of paper PMC5908809

Legend:
[1] = test system: normal NK cells expanded with K562-aAPC; experiment: percent inhibition of viability; higher = more inhibition; conditions: 72 h, IL-2 2.5 ng/mL
Experimental: (§1)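 Drug sensitivity and resistance testing on K562-aAPC-expanded normal NK cells: 5 concentrations (10-fold steps over a 10,000-fold range), 72 h at 37 °C, viability by CellTiter-Glo normalised to DMSO and benzethonium chloride controls; DSS from the fitted curve.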

[2] = test system: DERL-7 (IL-2 2.5 ng/mL); experiment: as above; conditions: 72 h
[3] = test system: IMC-1 (IL-2 20 ng/mL); experiment: as above; conditions: 72 h
[4] = test system: KAI3 (IL-2 2.5 ng/mL); experiment: as above; conditions: 72 h
[5] = test system: KHYG-1 (IL-2 2.5 ng/mL); experiment: as above; conditions: 72 h
[6] = test system: NK-92 (IL-2 2.5 ng/mL); experiment: as above; conditions: 72 h
[7] = test system: NK-YS (IL-2 2.5 ng/mL); experiment: as above; conditions: 72 h
[8] = test system: NKL (IL-2 2.5 ng/mL); experiment: as above; conditions: 72 h
[9] = test system: SNK-6 (IL-2 2.5 ng/mL); experiment: as above; conditions: 72 h
[10] = test system: YT (IL-2 2.5 ng/mL); experiment: as above; conditions: 72 h
[11] = test system: normal primary NK cells, pool 1 (3 donors) (IL-2 2.5 ng/mL); experiment: as above; conditions: 72 h
[12] = test system: normal primary NK cells, pool 1 (3 donors), resting (IL-2 0 ng/mL); experiment: as above; conditions: 72 h
[13] = test system: normal primary NK cells, pool 2 (3 donors) (IL-2 2.5 ng/mL); experiment: as above; conditions: 72 h
[14] = test system: normal primary NK cells, pool 3 (3 donors) (IL-2 2.5 ng/mL); experiment: as above; conditions: 72 h
[15] = test system: normal NK cells expanded with K562-aAPC; experiment: drug sensitivity score (DSS) (DSS units); higher = more sensitive; extreme values may be limits of the assay; conditions: 72 h; IL-2 2.5 ng/mL
Experimental: as §1

[16] = test system: DERL-7 (IL-2 2.5 ng/mL); experiment: as above; conditions: 72 h
[17] = test system: IMC-1 (IL-2 20 ng/mL); experiment: as above; conditions: 72 h
[18] = test system: KAI3 (IL-2 2.5 ng/mL); experiment: as above; conditions: 72 h
[19] = test system: KHYG-1 (IL-2 2.5 ng/mL); experiment: as above; conditions: 72 h
[20] = test system: NK-92 (IL-2 2.5 ng/mL); experiment: as above; conditions: 72 h
[21] = test system: NK-YS (IL-2 2.5 ng/mL); experiment: as above; conditions: 72 h
[22] = test system: NKL (IL-2 2.5 ng/mL); experiment: as above; conditions: 72 h
[23] = test system: SNK-6 (IL-2 2.5 ng/mL); experiment: as above; conditions: 72 h
[24] = test system: YT (IL-2 2.5 ng/mL); experiment: as above; conditions: 72 h
[25] = test system: normal primary NK cells, pool 1 (3 donors) (IL-2 2.5 ng/mL); experiment: as above; conditions: 72 h
[26] = test system: normal primary NK cells, pool 1 (3 donors), resting (IL-2 0 ng/mL); experiment: as above; conditions: 72 h
[27] = test system: normal primary NK cells, pool 2 (3 donors) (IL-2 2.5 ng/mL); experiment: as above; conditions: 72 h
[28] = test system: normal primary NK cells, pool 3 (3 donors) (IL-2 2.5 ng/mL); experiment: as above; conditions: 72 h

Cc1cc(Nc2nc(N[C@@H](C)c3ncc(F)cn3)ncc2Cl)[nH]n1 [AZD1480] (max concentration tested 1000 nM)
percent inhibition of viability [%]
Conditions | 0.1 nM | 1 nM | 10 nM | 100 nM | 1000 nM
[1] | -0.54 | 2.03 | 10.3 | 53.7 | 95.5
[2] | 0.17 | 6.33 | 14.9 | 62 | 94.2
[3] | -4.11 | -5.28 | -12.7 | -1.83 | 73.8
[4] | 3.55 | 2.45 | 24.7 | 77 | 87.5
[5] | 0.27 | 3.46 | 15.9 | 86.6 | 95.6
[6] | -8.05 | 3.14 | 1.52 | 28.2 | 78
[7] | 0.27 | -0.67 | 8.06 | 35.8 | 65.3
[8] | -13.4 | -3.23 | 19.8 | 65.5 | 76.2
[9] | -1.78 | 7.1 | 4.31 | 59.5 | 96.2
[10] | 2.34 | -1.75 | 1.84 | 10.8 | 70.7
[11] | -6.31 | -10.2 | 7.91 | 39.2 | 68.6
[12] | -5.75 | -9.19 | 6.02 | 2 | 2.57
[13] | -8.71 | -7.23 | -6.75 | 36.8 | 58
[14] | -15.9 | -5.65 | -9.13 | 21.8 | 58.1

Conditions | drug sensitivity score
[15] | 12
[16] | 13.7
[17] | 3.91
[18] | 17.1
[19] | 17.9
[20] | 8.24
[21] | 7.94
[22] | 14.5
[23] | 12.5
[24] | 5.7
[25] | 8.59
[26] | 0
[27] | 7.54
[28] | 6.17

COc1cc(CCc2cc(NC(=O)c3ccc(N4CC(C)NC(C)C4)cc3)n[nH]2)cc(OC)c1 (configuration not stated) [AZD4547] (max concentration tested 1000 nM)
percent inhibition of viability [%]
Conditions | 0.1 nM | 1 nM | 10 nM | 100 nM | 1000 nM
[1] | -0.43 | -4.83 | -0.59 | 0.99 | 13.7
[2] | 0.65 | 12 | 4.33 | 3.09 | 5.77
[3] | -10.2 | -0.55 | 2.58 | 3.59 | 11.7
[4] | 0.83 | 0.57 | 5.8 | 15.9 | 18.7
[5] | -1.35 | -9.6 | -4.7 | -0.32 | 6.6
[6] | -8.61 | -19.7 | -10.4 | 1.68 | 9.5
[7] | -1.26 | -3.32 | -4.3 | -2.46 | 7.41
[8] | -6.59 | -3.17 | 6.86 | 22.1 | 18.6
[9] | -8.3 | -5.78 | 6.93 | -1.06 | 30.7
[10] | -1.63 | -5.24 | 0.65 | 14.1 | 7.45
[11] | 0.51 | 14 | 13.1 | 8.85 | 9.5
[12] | -1.26 | 20.1 | 12.4 | 9.93 | 10.7
[13] | -16.2 | 4.82 | 5.78 | 1.94 | 4.66
[14] | -2.75 | 5.35 | 5.93 | -3.36 | 6.54

Conditions | drug sensitivity score
[15] | 0.21
[16] | 0
[17] | 0.05
[18] | 2.12
[19] | 0
[20] | 0
[21] | 0
[22] | 4.12
[23] | 1.27
[24] | 1.18
[25] | 3.07
[26] | 0.81
[27] | 0
[28] | 0

NC(=O)Nc1cc(-c2cccc(F)c2)sc1C(=O)N[C@H]1CCCNC1 [AZD7762] (max concentration tested 1000 nM)
percent inhibition of viability [%]
Conditions | 0.1 nM | 1 nM | 10 nM | 100 nM | 1000 nM
[1] | -1.82 | -2.38 | -5.7 | 40.7 | 73.3
[2] | 0.34 | 1.83 | -2.38 | 40.2 | 96.8
[3] | -6.23 | -1.75 | -2.17 | -7.04 | 99
[4] | 3.25 | 1.46 | 16.1 | 87.4 | 101
[5] | -7.54 | -7.13 | 3.29 | 100 | 106
[6] | -12.3 | 2.34 | -2.59 | 33.4 | 104
[7] | -4.78 | -5.3 | -1.14 | 32.8 | 98.5
[8] | -9.43 | -12.1 | 12 | 71.8 | 94.4
[9] | 1.39 | -7.11 | 6.7 | 38.1 | 98.3
[10] | -5.67 | -1.28 | 2.8 | 28.1 | 99.1
[11] | -5.93 | 12.7 | 4.94 | 7.28 | 38.7
[12] | -1.65 | 27.9 | 17.6 | 7.65 | 15
[13] | -6.25 | 11.4 | -7.48 | -6.09 | 39.8
[14] | -4.39 | 6.88 | -1.78 | -16.7 | 27.9

Conditions | drug sensitivity score
[15] | 9.03
[16] | 10.7
[17] | 4.99
[18] | 18
[19] | 18.4
[20] | 10.2
[21] | 10.1
[22] | 14.9
[23] | 10
[24] | 9.64
[25] | 3.1
[26] | 2.58
[27] | 1.59
[28] | 0.69
